How the values were obtained:
H23 cells = test: CellTiter-Glo (CTG) cell viability assay, H23 cells; format: cell-based; details: Homo sapiens, NCI-H23, 72 h, sotorasib 40 nM, Compound (A) 120 nM, single agent or combination of both
Description: (§1) 20,000 H23 cells were incubated in a 96 well plate as a triplicate with 40 nM of sotorasib or 120 nM of Compound (A) as a single agent or the combination of both for 72 h (FIG. 2). 20,000 MiaPaca-2 cells were incubated in a 96 well plate as a triplicate with 350 nM of sotorasib or 1000 nM of Compound (A) as a single agent or the combination of both for 72 h (FIG. 3). 20,000 H358 cells were incubated in a 96 well plate as a triplicate with 10 nM of sotorasib or 300 nM of Compound (A) as a single agent or the combination of both for 72 h (FIG. 4). 20,000 SW837 cells were incubated in a 96 well plate as a triplicate with 12 nM of sotorasib or 1000 nM of Compound (A) as a single agent or the combination of both for 72 h (FIG. 5). For each cell line, the cell viability was assessed using a CellTiter-Glo® (CTG) assay.

MiaPaca-2 cells [1] = test: CellTiter-Glo (CTG) cell viability assay, MiaPaca-2 cells; format: cell-based; details: Homo sapiens, MIA PaCa-2, 72 h, sotorasib 350 nM, Compound (A) 1000 nM, single agent or combination of both
Description: as §1

H358 cells = test: CellTiter-Glo (CTG) cell viability assay, H358 cells; format: cell-based; details: Homo sapiens, NCI-H358, 72 h, sotorasib 10 nM, Compound (A) 300 nM, single agent or combination of both
Description: as §1

SW837 cells [2] = test: CellTiter-Glo (CTG) cell viability assay, SW837 cells; format: cell-based; details: Homo sapiens, 72 h, sotorasib 12 nM, Compound (A) 1000 nM, single agent or combination of both
Description: as §1

SW837 cells [3] = test: SW837 subcutaneous xenograft, tumor growth; format: in vivo, Mice; details: Compound (A) 60 mg/kg p.o. qd x18, sotorasib 30 mg/kg p.o.
Description: Mice were inoculated with SW837 cells subcutaneously on the right flank with the single cell suspension of 95% viable tumor cells (1×10^7) in 100 μL L-15 Matrigel mixture (1:1 ratio) without serum for the tumor development. The treatment was started when the mean tumor size reached approximately 200 mm^3 (with individual tumor range between 180-220 mm^3). Animals were randomly distributed into treatment groups of 8 animals each and dosed with vehicle (top line indicated with circles) and indicated compounds at indicated dosage and frequency shown in FIG. 6 and Table 3. In FIG. 6, single agent activity was shown with Compound (A) and sotorasib at the indicated doses. In addition, the bottom line is Compound (A) 60 mg/kg p.o. qd×18+sotorasib 30 mg/kg p.o. pd×18. […] Tumor volumes were evaluated twice per week to calculate tumor volume over time, and mice were weighed twice per week as a surrogate for signs of toxicity. Tumor growth inhibition (TGI) was calculated using the following equation TGI=(1−(Td−T0)/(Cd−C0))×100%. Td and Cd are the mean tumor volumes of the treated and control animals, and T0 and C0 are the mean tumor volumes of the treated and control animals at the start of the experiment. The tumor regression was defined as (1−(Td/T0))×100% tumor volume (TV) decrease (Td terminal TV divided by T0 initial TV). […]

LoVo tumor cells = test: colorectal cancer LoVo xenograft model (KRAS mutant); format: in vivo, BALB/c nude mice
Description: (§2) The antitumor activity of Compound (A) was assessed using the colorectal cancer LoVo xenograft model (KRAS mutant) with BALB/c nude mice. Each mouse was inoculated on the right flank subcutaneously with 5×10^6/100 μL LoVo tumor cells for the tumor development. When the mean tumor size reached 207 mm^3, animals were randomized into 4 groups (10 animals/group), and the treatments were initiated according to Table 4.
(§3) Study endpoints included daily body weight, clinical observations and tumor volume.

SW1116 tumor cells = test: colorectal cancer SW1116 xenograft model (TP53 mutant; KRAS mutant); format: in vivo
Description: as §2, with “SW1116” for “LoVo”, “(TP53 mutant; KRAS” for “(KRAS”, “NOD/SCID” for “BALB/c”, “1×10^7 (+High Concentration Matrigel)/200” for “5×10^6/100”, “229” for “207”, “6.” for “4.”
as §3

MiaPaca-2 cells [4] = test: MiaPaca-2 subcutaneous xenograft, tumor growth; format: in vivo, Mice; details: MiaPaca-2 xenograft, Compound (A) 80 mg/kg p.o. qd x21, sotorasib 10 mg/kg or MRTX849 10 mg/kg p.o.
Description: (§4) Tumor volumes were evaluated twice per week to calculate tumor volume over time, and mice were weighed twice per week as a surrogate for signs of toxicity. Tumor growth inhibition (TGI) was calculated using the following equation TGI=(1−(Td−T0)/(Cd−C0))×100%. Td and Cd are the mean tumor volumes of the treated and control animals, and T0 and C0 are the mean tumor volumes of the treated and control animals at the start of the experiment.

SW1463 cells = test: SW1463 subcutaneous xenograft, tumor growth; format: in vivo, Mice; details: Compound (A) 80 mg/kg p.o. qd x21, sotorasib 30 mg/kg p.o.
Description: Mice were inoculated with SW1463 cells subcutaneously on the right flank with the single cell suspension of 95% viable tumor cells (1×10^7) in 100 μL L-15 Matrigel mixture (1:1 ratio) without serum for the tumor development. The treatment was started when the mean tumor size reached approximately 200 mm^3 (with individual tumor range between 180-220 mm^3). Animals were randomly distributed into treatment groups of 8 animals each and dosed with vehicle (top line indicated with circles) and indicated compounds at indicated dosage and frequency shown in FIG. 11 and Table 10. In FIG. 11, single agent activity was shown with Compound (A) and sotorasib at the indicated doses, and the bottom line is Compound (A) 80 mg/kg p.o. qd×21+sotorasib 30 mg/kg p.o. pd×21.
as §4, with “experiment. The tumor regression was defined as (1−(Td/T0))×100% tumor volume (TV) decrease (Td terminal TV divided by T0 initial TV). […]” for “experiment.”

## C=CCn1c(=O)c2cnc(Nc3ccc(N4CCN(C)CC4)cc3)nc2n1-c1ccc2c(n1)[C@@](O)(CC)CC2 [Compound (A)]
H23 cells
  inhibition at 0.12 µM: 16.5%
MiaPaca-2 cells [1]
  inhibition at 1 µM: 47%
H358 cells
  inhibition at 0.3 µM: 31.5%
SW837 cells [2]
  inhibition at 1 µM: 28.8%
SW837 cells [3]
  TGI % (DAY 18): 72%
LoVo tumor cells; 40 mg/kg/day p.o. qd x 28
  TGI (%): 21.4%
LoVo tumor cells; 60 mg/kg/day p.o. qd x 28
  TGI (%): 32.1%
LoVo tumor cells; 80 mg/kg/day p.o. qd x 28
  TGI (%): 70.3%
LoVo tumor cells; 40, 60, 80 mg/kg/day
  mean body weights: no significant impact of treatments on mean body weights
LoVo tumor cells; any dose group (40, 60, 80 mg/kg/day)
  clinical observations: no adverse clinical observations
SW1116 tumor cells; 40 mg/kg/day p.o. qd x 28
  TGI (%): 49.0%
SW1116 tumor cells; 60 mg/kg/day p.o. qd x 28
  TGI (%): 75.1%
SW1116 tumor cells; 80 mg/kg/day p.o. qd x 28
  TGI (%): 98.5%
SW1116 tumor cells; 40, 60, 80 mg/kg/day
  tolerability: generally well tolerated for the majority of study animals
MiaPaca-2 cells [4]
  TGI % (DAY 21): 50%
SW1463 cells
  TGI % (DAY 21): 57%

## C=CC(=O)N1CCN(c2nc(=O)n(-c3c(C)ccnc3C(C)C)c3nc(-c4c(O)cccc4F)c(F)cc23)[C@@H](C)C1 [sotorasib, reference compound]
H23 cells
  inhibition at 0.04 µM: 27.8%
MiaPaca-2 cells [1]
  inhibition at 0.35 µM: 39%
H358 cells
  inhibition at 0.01 µM: 24%
SW837 cells [2]
  inhibition at 0.012 µM: 20.7%
SW837 cells [3]
  TGI % (DAY 18): 80%
MiaPaca-2 cells [4]
  TGI % (DAY 21): 81%
SW1463 cells
  TGI % (DAY 21): 73%

From patent publication US20240335447A1, “WEE1 INHIBITOR FOR CANCER” (Recurium IP Holdings, LLC, priority 2021, published 2024)
